Legend:
WEE1 = target: T1, WEE1 (Homo sapiens, UniProt P30291+Q96SW2); assay: Western-blot assay of substrate protein degradation in hPBMCs, WEE1; type: cell-based; details: 24 hours of compound treatment, compounds tested at 50 nM and 500 nM (concentration of the table not stated)
T1 construct: endogenous in cells; host or cells: hPBMCs (Milecell Biotechnologies)

IKZF1 = target: T2, IKZF1 (Homo sapiens, UniProt Q13422+Q96SW2); assay: Western-blot assay of substrate protein degradation in hPBMCs, IKZF1; type: cell-based; details: 24 hours of compound treatment, compounds tested at 50 nM and 500 nM (concentration of the table not stated)
T2 construct: endogenous in cells; host or cells: hPBMCs (Milecell Biotechnologies)
T2 sequence (Q13422 whole entry): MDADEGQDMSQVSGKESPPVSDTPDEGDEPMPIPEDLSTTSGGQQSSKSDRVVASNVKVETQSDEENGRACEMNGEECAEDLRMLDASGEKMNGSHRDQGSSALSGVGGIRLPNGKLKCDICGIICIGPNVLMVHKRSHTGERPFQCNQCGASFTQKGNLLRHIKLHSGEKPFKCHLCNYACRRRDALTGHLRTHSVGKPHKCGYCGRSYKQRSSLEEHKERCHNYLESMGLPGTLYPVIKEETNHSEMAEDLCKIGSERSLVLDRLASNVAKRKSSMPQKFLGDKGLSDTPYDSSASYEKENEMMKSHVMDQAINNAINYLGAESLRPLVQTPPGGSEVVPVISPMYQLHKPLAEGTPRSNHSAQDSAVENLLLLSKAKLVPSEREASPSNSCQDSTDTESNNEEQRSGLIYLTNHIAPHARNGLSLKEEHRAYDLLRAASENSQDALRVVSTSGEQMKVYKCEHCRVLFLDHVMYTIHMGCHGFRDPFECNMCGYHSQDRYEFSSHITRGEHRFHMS
T2 sequence (Q96SW2 whole entry): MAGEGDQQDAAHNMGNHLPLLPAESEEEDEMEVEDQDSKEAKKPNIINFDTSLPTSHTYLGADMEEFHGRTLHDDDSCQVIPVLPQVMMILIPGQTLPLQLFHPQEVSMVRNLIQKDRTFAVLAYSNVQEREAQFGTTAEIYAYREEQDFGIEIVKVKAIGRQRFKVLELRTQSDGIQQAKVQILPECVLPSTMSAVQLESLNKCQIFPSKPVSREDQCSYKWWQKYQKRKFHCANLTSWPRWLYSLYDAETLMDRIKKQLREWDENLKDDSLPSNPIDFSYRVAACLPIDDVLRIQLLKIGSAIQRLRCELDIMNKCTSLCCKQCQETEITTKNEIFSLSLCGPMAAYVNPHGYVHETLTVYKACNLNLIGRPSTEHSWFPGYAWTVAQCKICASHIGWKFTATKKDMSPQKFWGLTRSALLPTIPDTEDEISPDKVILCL
T2 sequence (Q16531 whole entry partner): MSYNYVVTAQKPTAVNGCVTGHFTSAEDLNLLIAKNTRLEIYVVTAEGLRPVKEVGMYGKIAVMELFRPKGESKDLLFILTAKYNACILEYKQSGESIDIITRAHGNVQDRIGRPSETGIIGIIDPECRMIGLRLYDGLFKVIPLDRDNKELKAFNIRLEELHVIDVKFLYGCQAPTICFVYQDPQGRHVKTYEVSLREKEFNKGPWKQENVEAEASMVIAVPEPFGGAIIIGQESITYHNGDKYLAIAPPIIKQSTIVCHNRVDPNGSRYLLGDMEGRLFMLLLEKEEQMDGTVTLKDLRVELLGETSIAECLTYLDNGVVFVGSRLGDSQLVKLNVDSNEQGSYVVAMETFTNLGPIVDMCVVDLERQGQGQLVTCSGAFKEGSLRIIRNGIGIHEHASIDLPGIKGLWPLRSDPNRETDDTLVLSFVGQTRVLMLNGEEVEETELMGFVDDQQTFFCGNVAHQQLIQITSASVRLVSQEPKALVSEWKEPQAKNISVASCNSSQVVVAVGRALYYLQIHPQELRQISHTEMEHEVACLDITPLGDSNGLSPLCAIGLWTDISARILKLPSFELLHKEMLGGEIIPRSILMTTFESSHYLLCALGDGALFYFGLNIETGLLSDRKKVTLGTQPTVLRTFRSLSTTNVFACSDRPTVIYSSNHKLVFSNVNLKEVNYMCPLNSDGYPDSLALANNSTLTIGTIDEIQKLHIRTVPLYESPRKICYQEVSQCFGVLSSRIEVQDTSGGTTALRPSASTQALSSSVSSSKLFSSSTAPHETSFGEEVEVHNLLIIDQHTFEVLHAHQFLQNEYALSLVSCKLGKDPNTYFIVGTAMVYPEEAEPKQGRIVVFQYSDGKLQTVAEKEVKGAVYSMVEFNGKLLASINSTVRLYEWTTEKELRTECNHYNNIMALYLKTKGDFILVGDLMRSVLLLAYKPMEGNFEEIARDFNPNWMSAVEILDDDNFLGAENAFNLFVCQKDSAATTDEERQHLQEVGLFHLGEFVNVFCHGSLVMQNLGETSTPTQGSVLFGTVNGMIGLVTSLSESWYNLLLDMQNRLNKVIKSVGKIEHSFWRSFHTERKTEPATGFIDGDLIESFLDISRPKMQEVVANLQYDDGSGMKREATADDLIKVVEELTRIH

IKZF2 = target: T3, IKZF2 (Homo sapiens, UniProt Q96SW2+Q9UKS7); assay: Western-blot assay of substrate protein degradation in hPBMCs, IKZF2; type: cell-based; details: 24 hours of compound treatment, compounds tested at 50 nM and 500 nM (concentration of the table not stated)
T3 construct: endogenous in cells; host or cells: hPBMCs (Milecell Biotechnologies)
T3 sequence (Q9UKS7 whole entry): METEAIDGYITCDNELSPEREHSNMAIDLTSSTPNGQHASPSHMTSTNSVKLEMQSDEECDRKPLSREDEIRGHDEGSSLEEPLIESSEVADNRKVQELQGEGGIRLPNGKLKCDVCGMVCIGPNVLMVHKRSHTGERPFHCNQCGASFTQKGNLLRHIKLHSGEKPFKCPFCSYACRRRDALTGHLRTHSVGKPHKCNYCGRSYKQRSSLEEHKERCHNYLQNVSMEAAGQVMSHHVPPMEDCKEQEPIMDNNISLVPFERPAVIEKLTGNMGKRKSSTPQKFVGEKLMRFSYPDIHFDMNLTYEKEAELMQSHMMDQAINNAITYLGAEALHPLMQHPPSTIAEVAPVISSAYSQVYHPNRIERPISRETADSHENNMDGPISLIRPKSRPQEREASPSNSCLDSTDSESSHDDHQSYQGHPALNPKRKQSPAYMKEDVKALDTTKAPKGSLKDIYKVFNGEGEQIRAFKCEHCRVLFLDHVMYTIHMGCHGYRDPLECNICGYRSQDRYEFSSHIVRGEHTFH
T3 sequence (Q96SW2 whole entry): as the sequence (Q96SW2 whole entry) above
T3 sequence (Q16531 whole entry partner): as the sequence (Q16531 whole entry partner) above

IKZF3 = target: T4, IKZF3 (Homo sapiens, UniProt Q96SW2+Q9UKT9); assay: Western-blot assay of substrate protein degradation in hPBMCs, IKZF3; type: cell-based; details: 24 hours of compound treatment, compounds tested at 50 nM and 500 nM (concentration of the table not stated)
T4 construct: endogenous in cells; host or cells: hPBMCs (Milecell Biotechnologies)
T4 sequence (Q9UKT9 whole entry): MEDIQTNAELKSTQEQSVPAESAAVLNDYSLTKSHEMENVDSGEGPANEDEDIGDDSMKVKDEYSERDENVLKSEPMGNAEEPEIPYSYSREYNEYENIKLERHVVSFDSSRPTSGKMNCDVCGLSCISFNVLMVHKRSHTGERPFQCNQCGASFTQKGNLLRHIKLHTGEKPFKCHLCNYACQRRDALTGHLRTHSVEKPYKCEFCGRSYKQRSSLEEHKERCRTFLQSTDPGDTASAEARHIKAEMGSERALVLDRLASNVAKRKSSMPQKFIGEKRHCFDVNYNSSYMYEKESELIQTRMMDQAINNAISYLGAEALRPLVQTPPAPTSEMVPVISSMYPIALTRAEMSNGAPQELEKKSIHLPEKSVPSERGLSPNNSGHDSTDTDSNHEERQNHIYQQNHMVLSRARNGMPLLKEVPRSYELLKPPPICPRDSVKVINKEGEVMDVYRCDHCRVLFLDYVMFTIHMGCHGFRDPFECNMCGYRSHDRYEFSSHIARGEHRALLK
T4 sequence (Q96SW2 whole entry): as the sequence (Q96SW2 whole entry) above
T4 sequence (Q16531 whole entry partner): as the sequence (Q16531 whole entry partner) above

CK1α = target: T5, CK1α (Homo sapiens, UniProt P48729+Q96SW2); assay: Western-blot assay of substrate protein degradation in hPBMCs, CK1α; type: cell-based; details: 24 hours of compound treatment, compounds tested at 50 nM and 500 nM (concentration of the table not stated)
T5 construct: endogenous in cells; host or cells: hPBMCs (Milecell Biotechnologies)
T5 sequence (P48729 whole entry): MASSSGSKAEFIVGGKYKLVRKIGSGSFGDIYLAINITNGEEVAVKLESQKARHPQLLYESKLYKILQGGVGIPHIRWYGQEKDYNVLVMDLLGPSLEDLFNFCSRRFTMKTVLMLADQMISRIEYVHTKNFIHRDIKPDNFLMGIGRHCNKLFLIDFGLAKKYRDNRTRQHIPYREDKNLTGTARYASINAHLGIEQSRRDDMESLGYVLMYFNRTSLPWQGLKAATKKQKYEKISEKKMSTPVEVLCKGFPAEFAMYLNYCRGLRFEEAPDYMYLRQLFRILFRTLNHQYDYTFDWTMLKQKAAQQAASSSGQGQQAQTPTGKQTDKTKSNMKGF
T5 sequence (Q96SW2 whole entry): as the sequence (Q96SW2 whole entry) above
T5 sequence (Q16531 whole entry partner): as the sequence (Q16531 whole entry partner) above

GSPT1 = target: T6, GSPT1 (Homo sapiens, UniProt P15170+Q96SW2); assay: Western-blot assay of substrate protein degradation in hPBMCs, GSPT1; type: cell-based; details: 24 hours of compound treatment, compounds tested at 50 nM and 500 nM (concentration of the table not stated)
T6 construct: endogenous in cells; host or cells: hPBMCs (Milecell Biotechnologies)
T6 sequence (P15170 whole entry): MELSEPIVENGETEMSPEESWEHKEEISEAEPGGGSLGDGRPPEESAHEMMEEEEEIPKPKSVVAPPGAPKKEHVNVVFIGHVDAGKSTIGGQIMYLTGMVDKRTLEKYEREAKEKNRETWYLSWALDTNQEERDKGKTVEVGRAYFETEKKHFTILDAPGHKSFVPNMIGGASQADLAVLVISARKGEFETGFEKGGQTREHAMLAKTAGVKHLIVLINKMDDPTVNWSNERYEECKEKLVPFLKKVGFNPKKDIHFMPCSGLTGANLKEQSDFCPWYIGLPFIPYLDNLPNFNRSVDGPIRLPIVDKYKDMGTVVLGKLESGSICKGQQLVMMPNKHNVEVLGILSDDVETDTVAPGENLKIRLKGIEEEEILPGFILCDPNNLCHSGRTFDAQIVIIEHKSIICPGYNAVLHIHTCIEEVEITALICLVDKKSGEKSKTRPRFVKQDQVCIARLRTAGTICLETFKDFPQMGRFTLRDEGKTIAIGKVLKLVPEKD
T6 sequence (Q96SW2 whole entry): as the sequence (Q96SW2 whole entry) above
T6 sequence (Q16531 whole entry partner): as the sequence (Q16531 whole entry partner) above

[1] = target: T7, human Cereblon WT GST-tagged protein (Homo sapiens, UniProt Q96SW2); assay: CRBN-binding affinity by HTRF (CEREBLON BINDING kit); details: HTRF inhibitory activity, CEREBLON BINDING kit; read-out: HTRF IC50
T7 construct: purchased CISBIO 64BDCRBNPEH
T7 sequence (Q96SW2 whole entry): as the sequence (Q96SW2 whole entry) above

TMD8 = assay: Tumor cell proliferation inhibition (CellTiter-Meiluncell Luminescent Cell Viability Assay), TMD8; details: Homo sapiens, TMD8, 96 h, read-out: inhibitory activity (IC50, nM) against tumor cells proliferation, TMD8
Method: (§1) The tumor cells used herein were cultured in a cell culture medium listed in table 2 at 37°C in an incubator with 5% CO2. Prior to experimentation, all cell lines used were correctly identified by STR profiling, and tested negative for mycoplasma contamination using a mycoplasma detection kit through routine screenings.
(§2) On the following day, the test compounds of the present disclosure were subjected to serial dilution. […] Subsequently, 0.5 µL of the test compound dilution was transferred into the 96-well plate containing the cells, with each well containing 100 µL of cell culture medium. […] Into the 96-well plate, the diluted test compounds and corresponding detection reagents were added, resulting in final test compound concentrations of 500 nM and 10 nM, respectively. The experimental procedure is described below using the diluted 2 µM test compound as an example.
(§3) After the cells were treated with the compounds of the present disclosure for a specified period (the treatment durations were shown in Table 3), the cell viability assay reagent was added to the culture medium according to the kit's instructions to determine cell viability. […] All controls were treated using the same procedure as the compounds of the present disclosure. The growth inhibition curves for the compounds of the present disclosure were plotted using Prism GraphPad software, and the IC50 values were calculated therefrom.

[2] = test system: Human acute T lymphocytic leukemia cells (Molt-4); assay: Tumor cell proliferation inhibition (CellTiter-Meiluncell Luminescent Cell Viability Assay), Molt-4; details: MOLT-4, 96 h, read-out: inhibitory activity (IC50, nM) against tumor cells proliferation, Molt 4
Method: as §1, §2, §3

NCI-H1975 = assay: Tumor cell proliferation inhibition (CellTiter-Meiluncell Luminescent Cell Viability Assay), NCI-H1975; details: Homo sapiens, NCI-H1975, 96 h, read-out: inhibitory activity (IC50, nM) against tumor cells proliferation, H1975
[3] = test system: Human breast cancer cells (MDA-MB-231); assay: Tumor cell proliferation inhibition (CellTiter-Meiluncell Luminescent Cell Viability Assay), MDA-MB-231; details: MDA-MB-231, 96 h, read-out: inhibitory activity (IC50, nM) against tumor cells proliferation, MDA-MB-231

| IC50 [1] [nM] | IC50 (TMD8) [nM] | IC50 [2] [nM] | IC50 (NCI-H1975) [nM] | IC50 [3] [nM] | SMILES | Weel substrate protein remaining % (WEE1) | IKZF 1 substrate protein remaining % (IKZF1) | IKZF2 substrate protein remaining % (IKZF2) | IKZF3 substrate protein remaining % (IKZF3) | CK1a substrate protein remaining % (CK1α) | GSPT1 substrate protein remaining % (GSPT1) |
| --- | --- | --- | --- | --- | --- | --- | --- | --- | --- | --- | --- |
| 500 to 1000 | 100 to 500 | 5 to 10 | 100 to 500 | 10 to 50 | O=C1CCC(N2Cc3cc(CN4CCC(c5ccsc5)CC4)ccc3C2=O)C(=O)N1 (stereo not shown) [GT-04586, 3-(1-oxo-5-((4-(thiophen-3-yl)piperidin-1-yl)methyl)isoindolin-2-yl)piperidine-2,6-dione] | B (80%< substrate protein remaining %≤ 100%) | B (80%< substrate protein remaining %≤ 100%) | A (0% ≤ substrate protein remaining % ≤ 80%) | B (80%< substrate protein remaining %≤ 100%) | B (80%< substrate protein remaining %≤ 100%) | A (0% ≤ substrate protein remaining % ≤ 80%) |
| 500 to 1000 | 10 to 50 | 1 to 5 | 10 to 50 | 10 to 50 | O=C1CCC(N2Cc3cc(CN4CCN(c5cc(Cl)cc(Cl)c5)CC4)ccc3C2=O)C(=O)N1 (stereo not shown) [GT-04614, 3-(5-((4-(3,5-dichlorophenyl)piperazin-1-yl)methyl)-1-oxoisoindolin-2-yl)piperidine-2,6-dione] | A (0% ≤ substrate protein remaining % ≤ 80%) | B (80%< substrate protein remaining %≤ 100%) | B (80%< substrate protein remaining %≤ 100%) | B (80%< substrate protein remaining %≤ 100%) | B (80%< substrate protein remaining %≤ 100%) | A (0% ≤ substrate protein remaining % ≤ 80%) |
| 500 to 1000 | 500 to 1000 | 5 to 10 | 100 to 500 | 50 to 100 | O=C1CCC(N2Cc3cc(CN4CCC(c5nccc(Cl)c5Cl)CC4)ccc3C2=O)C(=O)N1 (stereo not shown) [GT-04690, 3-(5-((4-(3,4-dichloropyridin-2-yl)piperidin-1-yl)methyl)-1-oxoisoindolin-2-yl)piperidine-2,6-dione] | A (0% ≤ substrate protein remaining % ≤ 80%) | A (0% ≤ substrate protein remaining % ≤ 80%) | A (0% ≤ substrate protein remaining % ≤ 80%) | A (0% ≤ substrate protein remaining % ≤ 80%) | A (0% ≤ substrate protein remaining % ≤ 80%) | A (0% ≤ substrate protein remaining % ≤ 80%) |
| < 500 | 10 to 50 | 1 to 5 | 10 to 50 | 5 to 10 | O=C1CCC(N2Cc3cc(CN4CC=C(c5cccc6cnccc56)CC4)ccc3C2=O)C(=O)N1 (stereo not shown) [GT-04666, 3-(5-((4-(isoquinolin-5-yl)-3,6-dihydropyridin-1(2H)-yl)methyl)-1-oxoisoindolin-2-yl)piperidine-2,6-dione] | A (0% ≤ substrate protein remaining % ≤ 80%) | A (0% ≤ substrate protein remaining % ≤ 80%) | A (0% ≤ substrate protein remaining % ≤ 80%) | A (0% ≤ substrate protein remaining % ≤ 80%) | A (0% ≤ substrate protein remaining % ≤ 80%) | A (0% ≤ substrate protein remaining % ≤ 80%) |
| 1500 to 1900 | 10 to 50 | 1 to 5 | 10 to 50 | 10 to 50 | O=C1CCC(N2Cc3cc(CN4CCC(c5noc6cc(F)ccc56)CC4)c(F)cc3C2=O)C(=O)N1 (stereo not shown) [GT-04766, 3-(6-fluoro-5-((4-(6-fluorobenzo[d]isoxazol-3-yl)piperidin-1-yl)methyl)-1-oxoisoindolin-2-yl)piperidine-2,6-dione] | – | – | – | – | – | – |
| < 500 | 500 to 1000 | 10 to 50 | – | 100 to 500 | Cc1sc2ncnc(C3=CCN(Cc4ccc5c(c4)CN(C4CCC(=O)NC4=O)C5=O)CC3)c2c1C (stereo not shown) [GT-04727, 3-(5-((4-(5,6-dimethylthieno[2,3-d]pyrimidin-4-yl)-3,6-dihydropyridin-1(2H)-yl)methyl)-1-oxoisoindolin-2-yl)piperidine-2,6-dione] | A (0% ≤ substrate protein remaining % ≤ 80%) | A (0% ≤ substrate protein remaining % ≤ 80%) | B (80%< substrate protein remaining %≤ 100%) | A (0% ≤ substrate protein remaining % ≤ 80%) | A (0% ≤ substrate protein remaining % ≤ 80%) | A (0% ≤ substrate protein remaining % ≤ 80%) |

| SMILES | IC50 [1] [nM] | IC50 (TMD8) [nM] | IC50 [2] [nM] | IC50 (NCI-H1975) [nM] | IC50 [3] [nM] | Weel substrate protein remaining % (WEE1) | IKZF 1 substrate protein remaining % (IKZF1) | IKZF2 substrate protein remaining % (IKZF2) | IKZF3 substrate protein remaining % (IKZF3) | CK1a substrate protein remaining % (CK1α) | GSPT1 substrate protein remaining % (GSPT1) |
| --- | --- | --- | --- | --- | --- | --- | --- | --- | --- | --- | --- |
| O=C1CCC(N2Cc3cc(CN4CC=C(c5ncc6ccsc6n5)CC4)ccc3C2=O)C(=O)N1 (stereo not shown) [GT-04708, 3-(1-oxo-5-((4-(thieno[2,3-d]pyrimidin-2-yl)-3,6-dihydropyridin-1(2H)-yl)methyl)isoindolin-2-yl)piperidine-2,6-dione] | 500 to 1000 | 10 to 50 | 1 to 5 | 10 to 50 | 5 to 10 | A (0% ≤ substrate protein remaining % ≤ 80%) | B (80%< substrate protein remaining %≤ 100%) | B (80%< substrate protein remaining %≤ 100%) | B (80%< substrate protein remaining %≤ 100%) | A (0% ≤ substrate protein remaining % ≤ 80%) | A (0% ≤ substrate protein remaining % ≤ 80%) |
| O=C1CCC(N2Cc3cc(CN4CC=C(c5ncccc5F)CC4)ccc3C2=O)C(=O)N1 (stereo not shown) [GT-04689, 3-(5-((3-fluoro-3',6'-dihydro-[2,4'-bipyridin]-1'(2'H)-yl)methyl)-1-oxoisoindolin-2-yl)piperidine-2,6-dione] | < 500 | 50 to 100 | 5 to 10 | 50 to 100 | 10 to 50 | A (0% ≤ substrate protein remaining % ≤ 80%) | A (0% ≤ substrate protein remaining % ≤ 80%) | A (0% ≤ substrate protein remaining % ≤ 80%) | A (0% ≤ substrate protein remaining % ≤ 80%) | A (0% ≤ substrate protein remaining % ≤ 80%) | A (0% ≤ substrate protein remaining % ≤ 80%) |
| O=C1CCC(N2Cc3cc(CN4CCC(c5c[nH]c6cc(F)ccc56)CC4)ccc3C2=O)C(=O)N1 (stereo not shown) [GT-04713, 3-(5-((4-(6-fluoro-1H-indol-3-yl)piperidin-1-yl)methyl)-1-oxoisoindolin-2-yl)piperidine-2,6-dione] | 500 to 1000 | 10 to 50 | 1 to 5 | 5 to 10 | 1 to 5 | A (0% ≤ substrate protein remaining % ≤ 80%) | A (0% ≤ substrate protein remaining % ≤ 80%) | A (0% ≤ substrate protein remaining % ≤ 80%) | A (0% ≤ substrate protein remaining % ≤ 80%) | A (0% ≤ substrate protein remaining % ≤ 80%) | A (0% ≤ substrate protein remaining % ≤ 80%) |
| Cc1ccc(C2=CCN(Cc3ccc4c(c3)CN(C3CCC(=O)NC3=O)C4=O)CC2)s1 (stereo not shown) [GT-04572, 3-(5-((4-(5-methylthiophen-2-yl)-3,6-dihydropyridin-1(2H)-yl)methyl)-1-oxoisoindolin-2-yl)piperidine-2,6-dione] | 500 to 1000 | 10 to 50 | 1 to 5 | 10 to 50 | 10 to 50 | A (0% ≤ substrate protein remaining % ≤ 80%) | A (0% ≤ substrate protein remaining % ≤ 80%) | A (0% ≤ substrate protein remaining % ≤ 80%) | A (0% ≤ substrate protein remaining % ≤ 80%) | A (0% ≤ substrate protein remaining % ≤ 80%) | A (0% ≤ substrate protein remaining % ≤ 80%) |

Source: patent EP4745137A1 (Gluetacs Therapeutics (Shanghai) Co., Ltd., priority 2023, dated 2025)
